{"source": "paper PMC11335189", "about": "“Revealing molecular determinants governing mambalgin-3 pharmacology at acid-sensing ion channel 1 variants” (Cellular and Molecular Life Sciences: CMLS, 2024)", "key": {"[1]": {"target": "T1, rASIC1a E362R (Rattus norvegicus, UniProt P55926, E362R)", "T1 construct": "expressed in transfected cells; host or cells: Xenopus laevis oocytes (cRNA injection)", "T1 sequence (P55926 1-526 E362R)": "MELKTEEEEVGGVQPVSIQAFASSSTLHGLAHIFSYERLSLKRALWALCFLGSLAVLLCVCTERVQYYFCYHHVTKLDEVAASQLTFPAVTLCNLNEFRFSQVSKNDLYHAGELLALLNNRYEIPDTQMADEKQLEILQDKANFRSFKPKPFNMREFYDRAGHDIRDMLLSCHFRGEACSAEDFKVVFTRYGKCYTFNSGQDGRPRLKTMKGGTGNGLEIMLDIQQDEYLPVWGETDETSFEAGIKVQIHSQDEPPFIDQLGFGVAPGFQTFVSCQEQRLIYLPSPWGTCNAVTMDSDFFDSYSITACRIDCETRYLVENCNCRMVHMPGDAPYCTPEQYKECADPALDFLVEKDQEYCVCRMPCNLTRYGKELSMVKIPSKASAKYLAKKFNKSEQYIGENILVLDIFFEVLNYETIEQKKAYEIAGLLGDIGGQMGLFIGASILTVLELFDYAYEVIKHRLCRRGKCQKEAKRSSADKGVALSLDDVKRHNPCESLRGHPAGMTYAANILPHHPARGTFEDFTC", "assay": "TEVC oocytes, rASIC1a E362R mutant", "format": "cell-based", "conditions": "conditioning pH 7.45, stimulating pH 6", "experimental": "(§1) Two-electrode voltage-clamp (TEVC) experiments using Xenopus laevis oocytes were conducted as previously described. Briefly, oocytes were surgically removed from anaesthetised female frogs, then treated with collagenase (~ 1 mg/ml, Sigma type I) for 2 h under agitation at room temperature. cRNAs were synthesised using a mMessage mMachine T7 or SP6 transcription kit (Thermo Fisher Scientific Australia Pty Ltd, Scoresby, VIC, Australia) and injected into healthy stage V–VI oocytes at 0.2–20 ng per cell. […] Membrane currents were recorded 2–7 days after cRNA-injection under voltage-clamp at -60 mV (Axon Axoclamp 900 A, Molecular Devices, CA, USA) using two standard glass microelectrodes of 0.5–1 MΩ resistance when filled with 3 M KCl solution. […]\n(§2) Specific to this work, the standard protocol was for oocytes to be conditioned at pH 7.45 and channels stimulated every 60 s using a 5 s pH 5 or 6 application, unless stated otherwise. […] Activation curves were determined by conditioning oocytes at pH 8 (Fig. 2e − g; and Fig. 5a and b) or 7.45 (Fig. 6; and Supplementary Fig. 2d and c) for 55 s and applying low pH stimuli from 7.25 to 5.0 for 5 s. Steady-state desensitisation (SSD) was determined by applying conditioning solutions of pH values from 8 to 6 for 115 s prior to stimulation by a pH drop to 5 for 5 s. […] Control pH-dependence curves were determined in the absence of any Ma-3. […]"}, "[2]": {"target": "T2, rASIC1b C208Q (Rattus norvegicus, UniProt P55926, C208Q)", "T2 construct": "expressed in transfected cells; host or cells: Xenopus laevis oocytes (cRNA injection)", "T2 sequence (P55926 1-559 isoform P55926-3 C208Q)": "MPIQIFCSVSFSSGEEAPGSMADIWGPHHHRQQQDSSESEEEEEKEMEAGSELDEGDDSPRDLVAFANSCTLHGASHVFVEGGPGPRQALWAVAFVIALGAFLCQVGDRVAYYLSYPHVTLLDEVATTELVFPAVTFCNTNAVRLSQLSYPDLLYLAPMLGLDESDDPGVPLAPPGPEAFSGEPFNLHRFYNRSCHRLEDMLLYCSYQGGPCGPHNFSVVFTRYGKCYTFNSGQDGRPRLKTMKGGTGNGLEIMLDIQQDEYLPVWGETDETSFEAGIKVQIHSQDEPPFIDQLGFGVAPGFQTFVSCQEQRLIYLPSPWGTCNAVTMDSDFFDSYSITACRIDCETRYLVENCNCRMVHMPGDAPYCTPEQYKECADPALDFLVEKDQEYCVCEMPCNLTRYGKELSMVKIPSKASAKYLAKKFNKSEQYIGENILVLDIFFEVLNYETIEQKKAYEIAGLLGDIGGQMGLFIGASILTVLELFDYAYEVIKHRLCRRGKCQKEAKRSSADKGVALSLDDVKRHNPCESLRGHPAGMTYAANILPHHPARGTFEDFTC", "assay": "TEVC oocytes, rASIC1b C208Q mutant", "format": "cell-based", "experimental": "as §1, §2"}}, "note": "Positions of bridges follow the written chain, without caps; N, C: chain ends. No end group written: not given here.", "data": [{"substance": "H-SLKCYQHGKVVTCHRDMKFCYHNIGMPFRNLKLILQGCSSSCSETENNKCCSTDRCNK (disulfide 4-20, 13-38, 42-50, 51-56 (inferred)) [Ma-3, mambalgin-3]", "values": [{"measurement": "decrease in Ma-3 activity relative to wild-type rASIC1a", "setting": "[1]", "result": "~ 5 fold"}, {"measurement": "pH50 of activation in presence of Ma-3", "setting": "[2]; 300 nM Ma-3, conditioning pH 7.45, Hill fit, n = 5–6", "result": 6.27}, {"measurement": "Hill slope (95% CI)", "setting": "[2]; conditioning pH 7.45, pH 6 evoked currents, potentiation, 95% CI", "result": "1.26–2.01"}]}]}
